According to patent US20230122911A1, “FORMULATIONS OF ENZALUTAMIDE” (Astellas Pharma Inc., priority 2012, published 2023):

How the values were obtained:
[1] = Relative bioavailability of amorphous drug and spray-dried dispersions in rats (Example 12); type: in vivo; settings: oral gavage 20 mg/kg, mean ± standard deviation
Method: (§1) Five groups of jugular vein-cannulated CD® rats (n=6 per group) were dosed five enzalutamide formulations by oral gavage, at a dose of 20 mg/kg, in a volume of 2 ml/kg. Blood samples were obtained at 1, 3, 6, 12, 24, 36, 48, 60, and 72 hr post-dose.
(§2) The analytes, enzalutamide. MDPC0002, and MDPC0001 and internal standards (IS), N-^13CD3-enzalutamide, MDPC0002-^13CD3, and MDPC0001-^13CD3 were extracted from 0.050 µL, of rat plasma by a liquid-liquid extraction procedure. Internal standard working solution (25.0 µL) was added to all wells except the matrix blank. A 25.0 µL-volume of acetonitrile was added all matrix blank samples. After adding 200 µL of 5% sodium bicarbonate in water buffer solution, the plate was vortexed for approximately 10 seconds. A Tomtec Quadra 96-well pipettor was used to add 1,050 mL of methyl tert-butyl ether (MTBE) to all wells, mixed, and approximately 1.00 mL of the organic layer was transferred to a clean 96-well plate. The samples were evaporated under heated nitrogen and reconstituted with 250 µL of 0.1% formic acid in methanol/water (40:60. v/v). The plate was covered and gently vortexed for approximately 10 seconds. The extracts were chromatographed under reverse phase conditions on an ACE 5 C18 HPLC 5 µm, 2.1 x 30 mm column. The compounds were detected and quantified by tandem mass spectrometry in positive ion mode on an MDS Sciex API 3000 equipped with a Turbo IONSPRAY® probe. Calibration curves were obtained by performing a linear regression (weighted ⅟x^2) of the data from the calibration standards.
(§3) Plasma enzalutamide concentration vs. time curves were prepared, and values for the following parameters were determined. Cmax max is the highest enzalutamide concentration observed for each rat. Tmax is the time that Cmax is first achieved. AUC0-72 is the area under the plasma enzalutamide concentration vs. time plot out to 72 hr post-dosing.

[2] = Relative bioavailability of amorphous drug and HME dispersions in rats (Example 13); type: in vivo, rat; settings: oral gavage 20 mg/kg; for Mean AUC0-inf: rat plasma; for Bioavailability (Mean AUC0-inf/IV Mean AUC0-inf): rat
Method: as §1, with “Six” for “Five”, “six” for “five”, “ml/kg. with the exception of one group which was dosed intravenously via tail vein.” for “ml/kg.”
as §2, with “enzalutamide,” for “enzalutamide.”, “MDPC0002-^13CD3.” for “MDPC0002-^13CD3,”, “[…]” for “µL,”, “1.050” for “1,050”, “(40:60,” for “(40:60.”
as §3, with “Cmax” for “Cmax max”

[3] = Membrane-permeation (MP) dissolution test; type: in vitro ADME
Method: The membrane permeability test described in the Examples below is carried out as follows. A drug-permeable membrane is placed between feed and permeate reservoirs. A sufficient quantity of test composition is added to a feed test medium and placed in the feed reservoir, while a water immiscible organic solution, such as a 60/40 mixture of decanol/decane, is placed in the permeate reservoir. Samples are removed from the permeate reservoir and analyzed for the concentration of drug as a function of time. […] Further details of this membrane permeation test are disclosed in U.S. Pat. No 7,611,630 B2.
The MP-dissolution test, whose details are described above, measures a capability of low solubility drug formulations which is not measured in the microcentrifuge dissolution test utilized in Examples 4 and 7. This test mimics an aspect of the in vivo situation in the GI tract. In the in vivo situation, it is generally accepted that free drug in solution (i.e. individual drug molecules dissolved in the GI medium without association with formulation components) is the species which is absorbed across the gastrointestinal wall into the bloodstream. As free drug is absorbed, the formulation must be capable of supplying more free drug for absorption. The membrane permeation test measures the amount of drug which crosses a polymeric membrane (as a model of the GI wall) over time, and thus reflects the ability of the formulation to resupply free drug in solution to be further passively transported across the polymeric membrane. In Table 8.1 below, Maximum Flux is the maximum observed rate of permeation across the polymeric membrane, based on the slope of the absorption curve over any period within the 240 minute duration of the experiment, normalized for membrane area. Total drug recovery is the % of the initial drug dose which has crossed the membrane when the test ended at 240 minutes.

[4] = rat plasma, listed as Spray-dried amorphous drug
[5] = listed as Spray-dried amorphous drug

| Structure (SMILES) | AUC(0-t) ([1]; CD, rat, plasma, po, 20 mg/kg, read-out: AUC 0-72) [ng·h/mL] | Cmax ([1]; rat plasma) [ng/mL] | Tmax ([1]; rat plasma) [h] | Mean AUC0-inf [2] [ng·h/mL] | Bioavailability (Mean AUC0-inf/IV Mean AUC0-inf) [2] [%] | Maximum Flux ([3]; Table 8.1, within 240 minute duration, normalized for membrane area) [µg/cm^2×min] | Maximum Flux ([3]; Table 9.3) [µg/cm^2-min] | AUC 0-72 [1, 4] [ng·h/mL] | Cmax [1, 4] [ng/mL] | Tmax [1, 4] [h] | Mean AUC0-inf [2, 5] [ng·h/mL] | Bioavailability (Mean AUC0-inf/IV Mean AUC0-inf) [2, 5] [%] | Maximum Flux ([3]; Table 8.1, within 240 minute duration, normalized for membrane area, listed as Amorphous (spray-dried) enzalutamide) [µg/cm^2×min] |
| --- | --- | --- | --- | --- | --- | --- | --- | --- | --- | --- | --- | --- | --- |
| CNC(=O)c1ccc(N2C(=S)N(c3ccc(C#N)c(C(F)(F)F)c3)C(=O)C2(C)C)cc1F [Control 1, 4-{3-[4-cyano-3-(trifluoromethyl)phenyl]-5,5-dimethyl-4-oxo-2-sulfanylideneimidazolidin-1-yl}-2-fluoro-N-methylbenzamide] | 72700 ± 18400 | 3530 ± 660 | 6.05 ± 0.92 | 62600 | 27.1 | 0.4 | 0.4 | – | – | – | – | – | – |
| CNC(=O)c1ccc(N2C(=S)N(c3ccc(C#N)c(C(F)(F)F)c3)C(=O)C2(C)C)cc1F [Amorphous enzalutamide, 4-{3-[4-cyano-3-(trifluoromethyl)phenyl]-5,5-dimethyl-4-oxo-2-sulfanylideneimidazolidin-1-yl}-2-fluoro-N-methylbenzamide] | – | – | – | – | – | – | – | 121000 ± 16400 | 7140 ± 970 | 2.55 ± 0.57 | 132000 | 57.1 | 1.3 |
